# Reference: patent US11180494B2, “Substituted amino acids as integrin inhibitors” (Pliant Therapeutics, Inc., priority 2018, dated 2021)
# Molecular target: human integrin αvβ6 (Homo sapiens (Human), UniProt P06756+P18564)
# Experiment: Proximity-based integrin receptor binding assay (ALPHASCREEN) for inhibitor potency
# Conditions: inhibition of binding of TGF-b1 LAP to human integrin αvβ6; values given in ranges
# Description: To gauge the potency of inhibitors of binding to human integrin αvβ6, inhibitor compounds and integrin were incubated together with TGF-b1 LAP and biotinylated anti-LAP antibody plus acceptor and donor beads, following the manufacture's recommendations. The donor beads were coated with streptavidin. […] All incubations occurred at room temperatures in 50 mM Tris-HCl, pH 7.5, 0.1% BSA supplemented with 1 mM each CaCl2 and MgCl2.
# The order of reagent addition was as follows:
# 1. Alpha-v-beta-6 integrin, test inhibitor compound, LAP, biotinylated anti-LAP antibody and acceptor beads were all added together.
# 2. After 2 hours, donor beads were added. After another 30 minute incubation, samples were then read.
# Integrin binding was evaluated by exciting donor beads at 680 nm, and measuring the fluorescent signal produced, between 520-620 nm, using a Biotek Instruments (Winooski, Vt., USA) SynergyNeo2 multimode plate reader. […] Data analysis for IC50 determinations was carried out by nonlinear four parameter logistic regression analysis using Dotmatics ELN Software (Core Informatics Inc., Branford, Conn.).
# Sequence of human integrin αvβ6 (P06756 31-992): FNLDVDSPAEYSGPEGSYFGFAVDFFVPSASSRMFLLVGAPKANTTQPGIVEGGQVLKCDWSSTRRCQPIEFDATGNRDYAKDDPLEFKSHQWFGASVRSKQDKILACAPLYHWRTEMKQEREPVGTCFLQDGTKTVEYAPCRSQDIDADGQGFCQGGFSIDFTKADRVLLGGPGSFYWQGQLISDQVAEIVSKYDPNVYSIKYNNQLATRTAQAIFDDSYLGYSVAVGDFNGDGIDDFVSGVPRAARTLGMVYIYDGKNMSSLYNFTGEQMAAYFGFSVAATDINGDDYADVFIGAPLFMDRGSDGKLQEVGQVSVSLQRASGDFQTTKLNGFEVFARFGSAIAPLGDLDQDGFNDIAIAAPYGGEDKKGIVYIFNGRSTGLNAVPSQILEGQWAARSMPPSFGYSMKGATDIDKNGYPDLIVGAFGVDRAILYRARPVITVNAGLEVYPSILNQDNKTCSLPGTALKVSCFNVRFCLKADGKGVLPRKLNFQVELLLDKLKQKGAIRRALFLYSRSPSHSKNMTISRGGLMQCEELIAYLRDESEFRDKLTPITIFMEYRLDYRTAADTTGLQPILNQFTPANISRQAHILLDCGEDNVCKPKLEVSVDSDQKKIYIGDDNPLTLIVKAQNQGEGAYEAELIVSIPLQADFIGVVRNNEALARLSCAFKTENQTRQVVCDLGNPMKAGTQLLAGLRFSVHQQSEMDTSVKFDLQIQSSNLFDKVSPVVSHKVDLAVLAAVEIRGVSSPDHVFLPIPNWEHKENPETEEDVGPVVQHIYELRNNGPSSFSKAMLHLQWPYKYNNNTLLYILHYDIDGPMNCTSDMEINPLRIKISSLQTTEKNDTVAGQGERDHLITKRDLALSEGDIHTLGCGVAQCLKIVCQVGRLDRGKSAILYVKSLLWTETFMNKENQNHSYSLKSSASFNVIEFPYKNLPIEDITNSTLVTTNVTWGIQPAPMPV
# Sequence of human integrin αvβ6 (P18564 22-707): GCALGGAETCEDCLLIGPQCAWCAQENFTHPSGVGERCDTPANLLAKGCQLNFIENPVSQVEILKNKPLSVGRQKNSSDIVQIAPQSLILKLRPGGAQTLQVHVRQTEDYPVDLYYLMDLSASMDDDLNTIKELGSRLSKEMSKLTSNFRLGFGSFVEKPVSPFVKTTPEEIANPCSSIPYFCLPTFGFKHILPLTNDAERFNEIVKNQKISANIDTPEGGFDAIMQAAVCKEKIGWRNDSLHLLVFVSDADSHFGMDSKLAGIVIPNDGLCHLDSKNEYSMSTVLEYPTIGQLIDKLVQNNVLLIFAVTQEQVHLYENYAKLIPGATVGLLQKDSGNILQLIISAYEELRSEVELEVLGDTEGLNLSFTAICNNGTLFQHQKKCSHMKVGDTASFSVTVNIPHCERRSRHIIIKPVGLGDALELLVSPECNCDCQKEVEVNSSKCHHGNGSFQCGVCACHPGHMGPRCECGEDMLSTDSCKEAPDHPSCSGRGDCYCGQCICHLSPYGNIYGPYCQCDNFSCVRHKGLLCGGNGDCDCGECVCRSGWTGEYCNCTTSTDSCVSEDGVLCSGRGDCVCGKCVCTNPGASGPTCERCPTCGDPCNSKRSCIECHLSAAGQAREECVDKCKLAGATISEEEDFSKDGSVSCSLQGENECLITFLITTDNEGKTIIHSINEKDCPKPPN
row,IC50,SMILES
1,250 to 1000 nM,"O=C(N[C@@H](CCO[C@H]1C[C@@H](CCc2ccc3c(n2)NCCC3)C1)C(=O)O)c1ccncc1 [Compound 68, N-isonicotinoyl-O-(cis-3-(2-(5,6,7,8-tetrahydro-1,8-naphthyridin-2-yl)ethyl)cyclobutyl)homoserine]"
2,< 50 nM,"CCN(CC)C(=O)N[C@@H](CCO[C@H]1C[C@H](CCc2ccc3c(n2)NCCC3)C1)C(=O)O [Compound 117, N-(diethylcarbamoyl)-O-(trans-3-(2-(5,6,7,8-tetrahydro-1,8-naphthyridin-2-yl)ethyl)cyclobutyl)homoserine]"
3,< 50 nM,"CC(C)(C)C(=O)NC(CCO[C@H]1C[C@H](CCc2ccc3c(n2)NCCC3)C1)C(=O)O (stereo partly drawn) [Compound 109, N-pivaloyl-O-(trans-3-(2-(5,6,7,8-tetrahydro-1,8-naphthyridin-2-yl)ethyl)cyclobutyl)homoserine]"
4,< 50 nM,"O=C(N[C@@H](CCO[C@H]1C[C@H](CCc2ccc3c(n2)NCCC3)C1)C(=O)O)c1cccc(Cl)c1Cl [Compound 30, N-(2,3-dichlorobenzoyl)-O-(trans-3-(2-(5,6,7,8-tetrahydro-1,8-naphthyridin-2-yl)ethyl)cyclobutyl)homoserine]"
5,< 50 nM,"O=C(N[C@@H](CCO[C@H]1C[C@H](CCc2ccc3c(n2)NCCC3)C1)C(=O)O)c1cccc(F)c1F [Compound 23, N-(2,3-difluorobenzoyl)-O-(trans-3-(2-(5,6,7,8-tetrahydro-1,8-naphthyridin-2-yl)ethyl)cyclobutyl)homoserine]"
6,< 50 nM,"O=C(O)C(CCO[C@H]1C[C@H](CCc2ccc3c(n2)NCCC3)C1)NC(=O)C1(c2ccccc2)CC1 (stereo partly drawn) [Compound 97, N-(1-phenylcyclopropane-1-carbonyl)-O-(trans-3-(2-(5,6,7,8-tetrahydro-1,8-naphthyridin-2-yl)ethyl)cyclobutyl)homoserine]"
7,< 50 nM,"O=C(N[C@@H](CCO[C@H]1C[C@H](CCc2ccc3c(n2)NCCC3)C1)C(=O)O)C1CCc2ccccc21 (single isomer, unassigned) [111**,††]"
8,50 to 250 nM,"Cn1cc(-c2cccc(C(=O)NC(CCOCCCCc3ccc4c(n3)NCCC4)C(=O)O)c2)cn1 (stereo not drawn) [Compound 73, N-(3-(1-methyl-1H-pyrazol-4-yl)benzoyl)-O-(4-(5,6,7,8-tetrahydro-1,8-naphthyridin-2-yl)butyl)homoserine]"
9,50 to 250 nM,"CN(C(=O)N[C@@H](CCO[C@H]1C[C@H](CCc2ccc3c(n2)NCCC3)C1)C(=O)O)C(C)(C)C [Compound 119, N-(tert-butyl(methyl)carbamoyl)-O-(trans-3-(2-(5,6,7,8-tetrahydro-1,8-naphthyridin-2-yl)ethyl)cyclobutyl)homoserine]"
10,50 to 250 nM,"CC(=O)N1CC(C)(OC(=O)N[C@@H](CCO[C@H]2C[C@H](CCc3ccc4c(n3)NCCC4)C2)C(=O)O)C1 [Compound 129, N-(((1-acetyl-3-methylazetidin-3-yl)oxy)carbonyl)-O-(trans-3-(2-(5,6,7,8-tetrahydro-1,8-naphthyridin-2-yl)ethyl)cyclobutyl)homoserine]"
11,< 50 nM,"CCC(CC)CC(=O)NC(CCO[C@H]1C[C@H](CCc2ccc3c(n2)NCCC3)C1)C(=O)O (stereo partly drawn) [Compound 63, N-(3-ethylpentanoyl)-O-(trans-3-(2-(5,6,7,8-tetrahydro-1,8-naphthyridin-2-yl)ethyl)cyclobutyl)homoserine]"
12,250 to 1000 nM,"CC(=O)N1CC(OC(=O)N[C@@H](CCO[C@H]2C[C@H](CCc3ccc4c(n3)NCCC4)C2)C(=O)O)C1 [Compound 150, N-(((1-acetylazetidin-3-yl)oxy)carbonyl)-O-(trans-3-(2-(5,6,7,8-tetrahydro-1,8-naphthyridin-2-yl)ethyl)cyclobutyl)homoserine]"
13,< 50 nM,"O=C(O)[C@H](CCO[C@H]1C[C@H](CCc2ccc3c(n2)NCCC3)C1)Nc1ncnc2ccccc12 [Example 224, N-(quinazolin-4-yl)-O-(trans-3-(2-(5,6,7,8-tetrahydro-1,8-naphthyridin-2-yl)ethyl)cyclobutyl)homoserine]"
14,< 50 nM,"O=C(N[C@@H](CCO[C@H]1C[C@@H](CCc2ccc3c(n2)NCCC3)C1)C(=O)O)c1cccc(F)c1Cl [Compound 14, N-(2-chloro-3-fluorobenzoyl)-O-(cis-3-(2-(5,6,7,8-tetrahydro-1,8-naphthyridin-2-yl)ethyl)cyclobutyl)homoserine]"
15,< 50 nM,Cn1cc(-c2cccc(C(=O)NC(CCO[C@H]3C[C@H](CCc4ccc5c(n4)NCCC5)C3)C(=O)O)c2)cn1 (stereo partly drawn) [Compound 72]
16,50 to 250 nM,"O=C(N[C@@H](CCO[C@H]1C[C@H](CCc2ccc3c(n2)NCCC3)C1)C(=O)O)c1cccc(C2CC2)c1 [Compound 56, N-(3-cyclopropylbenzoyl)-O-(trans-3-(2-(5,6,7,8-tetrahydro-1,8-naphthyridin-2-yl)ethyl)cyclobutyl)homoserine]"
17,< 50 nM,"CC(C)(C)NC(=O)N[C@@H](CCO[C@H]1C[C@H](CCc2ccc3c(n2)NCCC3)C1)C(=O)O [Compound 118, N-(tert-butylcarbamoyl)-O-(trans-3-(2-(5,6,7,8-tetrahydro-1,8-naphthyridin-2-yl)ethyl)cyclobutyl)homoserine]"
18,250 to 1000 nM,"O=C(O)[C@H](CCOCCCCc1ccc2c(n1)NCCC2)NC(=O)[C@H](O)c1ccccc1 [Compound 76, N—((R)-2-hydroxy-2-phenylacetyl)-O-(4-(5,6,7,8-tetrahydro-1,8-naphthyridin-2-yl)butyl)homoserine]"
19,> 1000 nM,"O=C(O)C(CCO[C@H]1C[C@H](CCc2ccc3c(n2)NCCC3)C1)NC(=O)[C@@H](O)c1ccccc1 (stereo partly drawn) [Compound 78, N—((S)-2-hydroxy-2-phenylacetyl)-O-(trans-3-(2-(5,6,7,8-tetrahydro-1,8-naphthyridin-2-yl)ethyl)cyclobutyl)homoserine]"
20,< 50 nM,"CS(=O)(=O)N1CC[C@H](OC(=O)N[C@@H](CCO[C@H]2C[C@H](CCc3ccc4c(n3)NCCC4)C2)C(=O)O)C1 [Compound 136, N—((((S)-1-(methylsulfonyl)pyrrolidin-3-yl)oxy)carbonyl)-O-(trans-3-(2-(5,6,7,8-tetrahydro-1,8-naphthyridin-2-yl)ethyl)cyclobutyl)homoserine]"
21,50 to 250 nM,"O=C(NC(CCOCCCCc1ccc2c(n1)NCCC2)C(=O)O)C1CCC(F)(F)CC1 (stereo not drawn) [Compound 7, N-(4,4-difluorocyclohexane-1-carbonyl)-O-(4-(5,6,7,8-tetrahydro-1,8-naphthyridin-2-yl)butyl)homoserine]"
22,50 to 250 nM,"Cn1cc2cc(C(=O)N[C@@H](CCO[C@H]3C[C@H](CCc4ccc5c(n4)NCCC5)C3)C(=O)O)ccc2n1 [Compound 40, N-(2-methyl-2H-indazole-5-carbonyl)-O-(trans-3-(2-(5,6,7,8-tetrahydro-1,8-naphthyridin-2-yl)ethyl)cyclobutyl)homoserine]"
23,50 to 250 nM,"O=C(O)C(CCO[C@H]1C[C@@H](CCc2ccc3c(n2)NCCC3)C1)NC(=O)[C@@H](CO)c1ccccc1 (stereo partly drawn) [Compound 70, N—((R)-3-hydroxy-2-phenylpropanoyl)-O-(cis-3-(2-(5,6,7,8-tetrahydro-1,8-naphthyridin-2-yl)ethyl)cyclobutyl)homoserine]"
24,50 to 250 nM,"CCC(CC)(C(=O)N[C@@H](CCO[C@H]1C[C@H](CCc2ccc3c(n2)NCCC3)C1)C(=O)O)c1ccccc1 [Compound 169, N-(2-ethyl-2-phenylbutanoyl)-O-(trans-3-(2-(5,6,7,8-tetrahydro-1,8-naphthyridin-2-yl)ethyl)cyclobutyl)homoserine]"
25,250 to 1000 nM,"O=C(O)C(CCO[C@H]1C[C@H](CCc2ccc3cccnc3n2)C1)Nc1ncnc2ccccc12 (stereo partly drawn) [Example 227, O-(trans-3-(2-(1,8-naphthyridin-2-yl)ethyl)cyclobutyl)-N-(quinazolin-4-yl)homoserine]"
26,50 to 250 nM,"O=C(NC(CCO[C@H]1C[C@H](CCc2ccc3c(n2)NCCC3)C1)C(=O)O)c1cccc(-c2cncs2)c1 (stereo partly drawn) [Compound 49, O-(trans-3-(2-(5,6,7,8-tetrahydro-1,8-naphthyridin-2-yl)ethyl)cyclobutyl)-N-(3-(thiazol-5-yl)benzoyl)homoserine]"

row,SMILES,IC50
1,"O=C(N[C@@H](CCO[C@H]1C[C@H](CCc2ccc3c(n2)NCCC3)C1)C(=O)O)c1ccnc2cc[nH]c12 (relative stereo) [Compound 170, N-(1H-pyrrolo[3,2-b]pyridine-7-carbonyl)-O-(trans-3-(2-(5,6,7,8-tetrahydro-1,8-naphthyridin-2-yl)ethyl)cyclobutyl)homoserine]",< 50 nM
2,"CC(C)(C)OC(=O)N1CC[C@@H](OC(=O)N[C@@H](CCO[C@H]2C[C@H](CCc3ccc4c(n3)NCCC4)C2)C(=O)O)C1 [Compound 138, N—((((R)-1-(tert-butoxycarbonyl)pyrrolidin-3-yl)oxy)carbonyl)-O-(trans-3-(2-(5,6,7,8-tetrahydro-1,8-naphthyridin-2-yl)ethyl)cyclobutyl)homoserine]",50 to 250 nM
3,"CC(C)(C)OC(=O)N1CC(OC(=O)N[C@@H](CCO[C@H]2C[C@H](CCc3ccc4c(n3)NCCC4)C2)C(=O)O)(c2cccc(Cl)c2)C1 [Compound 157, N-(((1-(tert-butoxycarbonyl)-3-(3-chlorophenyl)azetidin-3-yl)oxy)carbonyl)-O-(trans-3-(2-(5,6,7,8-tetrahydro-1,8-naphthyridin-2-yl)ethyl)cyclobutyl)homoserine]",< 50 nM
4,"CC(C)COC(=O)N[C@@H](CCO[C@H]1C[C@H](CCc2ccc3c(n2)NCCC3)C1)C(=O)O [Compound 132, N-(isobutoxycarbonyl)-O-(trans-3-(2-(5,6,7,8-tetrahydro-1,8-naphthyridin-2-yl)ethyl)cyclobutyl)homoserine]",50 to 250 nM
